Patent US11000033B2, “Ketone or oxime compound, and herbicide” (NISSAN CHEMICAL CORPORATION, priority 2014, dated 2021)

Legend:
Format in all cases: in vivo
Monochoria vaginalis = assay: Test Example 1: herbicidal activity, application before weed generation in submerged conditions (symbol C); settings: application herbicide amount 320 g/ha
Outline: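 Mixed weed seeds sown in alluvial soil under 4 cm of water, with rice seedlings at the 2.5-leaf stage added. Same-day treatment: emulsion diluted to a set herbicide amount onto the water. Three weeks at 25–30 °C, then graded on a six-step scale.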

transplanted rice plant = assay: Test Example 1: effect on crop, application before weed generation in submerged conditions (symbol a); settings: application herbicide amount 320 g/ha
Outline: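 Rice at 2.5 leaf stage transplanted into submerged soil (4 cm depth) sown with three weed species; herbicide applied before weed emergence.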

[1] = system: Echinochloa oryzacola Vasing.; assay: Test Example 2: herbicidal activity, application during weed generation in submerged conditions (symbol A); settings: Table 23; application herbicide amount 320 g/ha; grade 0-5 by criteria of Test Example 1
Outline: (§1)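 Paddy pot test, submerged (4 cm water), alluvial soil, mixed sowing; greenhouse 25–30° C. Emulsion formulation diluted to predetermined rate, applied onto floodwater at 1–2 leaf stage. Visual herbicidal rating at 3 wk post-treatment.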

Scirpus juncoides = assay: Test Example 2: herbicidal activity, application during weed generation in submerged conditions (symbol B); settings: Table 23; application herbicide amount 320 g/ha; grade 0-5 by criteria of Test Example 1
Outline: as §1

[2] = system: Echinochloa crus-galli var. crus-galli; assay: Test Example 3: herbicidal effect by foliage application, Wagner pot (symbol H); settings: application herbicide amount 320 g/ha
Outline: (§2)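 Foliar spray of water-diluted emulsion formulation at a predetermined herbicide amount onto 14-day-old plants in flooded alluvial soil (water depth 0.1–0.5 cm), greenhouse 25–30 °C; rice sown alongside. Scored 3 wk post-application on set criteria.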

Leptochloa chinensis = assay: Test Example 3: herbicidal effect by foliage application, Wagner pot (symbol D); settings: application herbicide amount 320 g/ha
Outline: as §2

Cyperus difformis = assay: Test Example 3: herbicidal effect by foliage application, Wagner pot (symbol E); settings: application herbicide amount 320 g/ha
Outline: as §2

Abutilon theophrasti = assay: Test Example 4: herbicidal effect by soil treatment (symbol M); settings: application herbicide amount 320 g/ha
Outline: (§3)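 Seeds were sown in sterilized diluvial soil, covered with about 1.5 cm of soil, and the soil surface was sprayed with a water-diluted emulsion of the compound at a predetermined rate. Plants grew in a greenhouse at 25° C. to 30° C.; effects were scored visually 3 weeks after application.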

Stellaria media = assay: Test Example 4: herbicidal effect by soil treatment (symbol P); settings: application herbicide amount 320 g/ha
Outline: as §3

corn [3] = assay: Test Example 4: effect on crop by soil treatment (symbol c); settings: application herbicide amount 320 g/ha
Outline: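 Plants are raised in a greenhouse (25° C. to 30° C.) from spot-sown seed, which sits under about 1.5 cm of sterilized diluvial soil in a box shared with weed species.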

soybean [4] = assay: Test Example 4: effect on crop by soil treatment (symbol d); settings: application herbicide amount 320 g/ha
Outline: (§4)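 Crop seed is sown in spots together with several weed species in a box of sterilized diluvial soil. It is covered by about 1.5 cm of soil and kept in a greenhouse held between 25° C. and 30° C.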

wheat = assay: Test Example 4: effect on crop by soil treatment (symbol e); settings: application herbicide amount 320 g/ha
Outline: as §4

corn [5] = assay: Test Example 5: effect on crop by foliage application, plastic box (symbol c); settings: 320 g/ha, 3 weeks after application
Outline: (§5)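 Sterilized diluvial soil, plastic box (21 × 13 × 7 cm); spot sowing, ~1.5 cm soil cover; greenhouse 25–30° C.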

soybean [6] = assay: Test Example 5: effect on crop by foliage application, plastic box (symbol d); settings: 320 g/ha, 3 weeks after application
Outline: as §5

rice plant = assay: Test Example 5: effect on crop by foliage application, plastic box (symbol b); settings: 320 g/ha, 3 weeks after application
Outline: as §5

beet = assay: Test Example 5: effect on crop by foliage application, plastic box (symbol f); settings: 320 g/ha, 3 weeks after application
Outline: as §5

SMILES | Herbicidal effect grade, C: Monochoria vaginalis (Monochoria vaginalis) | Effect grade on crop, a: transplanted rice plant (transplanted rice plant) | Herbicidal effect grade, A: Echinochloa oryzacola Vasing. [1] | Herbicidal effect grade, B: Scirpus juncoides (Scirpus juncoides) | herbicidal effect on H (Echinochloa crus-galli var. crus-galli), grade 0-5 [2] | herbicidal effect on D (Leptochloa chinensis), grade 0-5 (Leptochloa chinensis) | herbicidal effect on E, grade 0-5 (Cyperus difformis) | Herbicidal effect grade, M: Abutilon theophrasti (Abutilon theophrasti) | Herbicidal effect grade, P: Stellaria media (Stellaria media) | Effect on crop grade, c: corn (corn [3]) | Effect on crop grade, d: soybean (soybean [4]) | Effect on crop grade, e: wheat (wheat) | c: corn, effect on crop (criteria of Test Example 1) (corn [5]) | d: soybean, effect on crop (criteria of Test Example 1) (soybean [6]) | b: directly sowed rice plant, effect on crop (criteria of Test Example 1) (rice plant) | f: beet, effect on crop (criteria of Test Example 1) (beet) | other results
CC(=O)CC1CC(O)=C(c2c(C)cc(-c3ccc(Cl)cc3)cc2C)C1=O (stereo not shown) [7-008] | 0 (Herbicidal ratio of 5% or lower (almost no effect)) | 5 (Herbicidal ratio of 90% or more (almost completely withered)) | 4 (Herbicidal ratio of 70% or higher and lower than 90%) | 0 (Herbicidal ratio of 5% or lower (almost no effect)) | 5 (Herbicidal ratio of 90% or more (almost completely withered)) | 5 (Herbicidal ratio of 90% or more (almost completely withered)) | 5 (Herbicidal ratio of 90% or more (almost completely withered)) | 0 (Herbicidal ratio of 5% or lower (almost no effect)) | 0 (Herbicidal ratio of 5% or lower (almost no effect)) | 4 (Herbicidal ratio of 70% or higher and lower than 90%) | 0 (Herbicidal ratio of 5% or lower (almost no effect)) | 1 (Herbicidal ratio of 5% or higher and lower than 20%) | 5 (Herbicidal ratio of 90% or more (almost completely withered)) | 0 (Herbicidal ratio of 5% or lower (almost no effect)) | 5 (Herbicidal ratio of 90% or more (almost completely withered)) | 0 (Herbicidal ratio of 5% or lower (almost no effect)) | 
CON=C(C)CC1CC(OC(=O)N2CCOCC2)=C(c2c(C)cc(-c3ccc(F)cc3)cc2C)C1=O (mixture of isomers) [6-059] | 4 (Herbicidal ratio of 70% or higher and lower than 90%) | 5 (Herbicidal ratio of 90% or more (almost completely withered)) | 5 (Herbicidal ratio of 90% or more (almost completely withered)) | 4 (Herbicidal ratio of 70% or higher and lower than 90%) | 5 (Herbicidal ratio of 90% or more (almost completely withered)) | 5 (Herbicidal ratio of 90% or more (almost completely withered)) | 5 (Herbicidal ratio of 90% or more (almost completely withered)) |  |  |  |  |  | 5 (Herbicidal ratio of 90% or more (almost completely withered)) | 0 (Herbicidal ratio of 5% or lower (almost no effect)) | 5 (Herbicidal ratio of 90% or more (almost completely withered)) | 0 (Herbicidal ratio of 5% or lower (almost no effect)) | M: Abutilon theophrasti, herbicidal effect grade (Abutilon theophrasti): 0 (Herbicidal ratio of 5% or lower (almost no effect)); P: Stellaria media, herbicidal effect grade (Stellaria media): 0 (Herbicidal ratio of 5% or lower (almost no effect)); c: corn, effect on crop grade (corn [3]): 0 (Herbicidal ratio of 5% or lower (almost no effect)); d: soybean, effect on crop grade (soybean [4]): 0 (Herbicidal ratio of 5% or lower (almost no effect)); e: wheat, effect on crop grade (wheat): 0 (Herbicidal ratio of 5% or lower (almost no effect))
CON=C(C)C(C(C)=NOC)C1CC(O)=C(c2c(C)cc(C)cc2C)C1=O (stereo not shown) [1-021] | 0 (Herbicidal ratio of 5% or lower (almost no effect)) | 0 (Herbicidal ratio of 5% or lower (almost no effect)) | 0 (Herbicidal ratio of 5% or lower (almost no effect)) | 0 (Herbicidal ratio of 5% or lower (almost no effect)) | 2 (Herbicidal ratio of 20% or higher and lower than 40%) | 0 (Herbicidal ratio of 5% or lower (almost no effect)) | 0 (Herbicidal ratio of 5% or lower (almost no effect)) |  |  |  |  |  |  |  |  |  | M (Abutilon theophrasti) herbicidal effect grade (Abutilon theophrasti): 0 (Herbicidal ratio of 5% or lower (almost no effect)); P (Stellaria media) herbicidal effect grade (Stellaria media): 0 (Herbicidal ratio of 5% or lower (almost no effect)); c (corn) effect on crop grade (corn [3]): 0 (Herbicidal ratio of 5% or lower (almost no effect)); d (soybean) effect on crop grade (soybean [4]): 0 (Herbicidal ratio of 5% or lower (almost no effect)); e (wheat) effect on crop grade (wheat): 0 (Herbicidal ratio of 5% or lower (almost no effect)); c: corn, effect on crop grade (corn [5]): 0 (Herbicidal ratio of 5% or lower (almost no effect)); d: soybean, effect on crop grade (soybean [6]): 0 (Herbicidal ratio of 5% or lower (almost no effect)); b: directly sowed rice plant, effect on crop grade (rice plant): 3 (Herbicidal ratio of 40% or higher and lower than 70%); f: beet, effect on crop grade (beet): 0 (Herbicidal ratio of 5% or lower (almost no effect))
CON=C(C)CC1CC(OC(=O)COc2ccccc2)=C(c2c(C)cc(-c3ccc(Cl)cc3Cl)cc2C)C1=O (stereo not shown) [6-092] | 0 (Herbicidal ratio of 5% or lower (almost no effect)) | 0 (Herbicidal ratio of 5% or lower (almost no effect)) | 1 (Herbicidal ratio of 5% or higher and lower than 20%) | 0 (Herbicidal ratio of 5% or lower (almost no effect)) | 5 (Herbicidal ratio of 90% or more (almost completely withered)) | 5 (Herbicidal ratio of 90% or more (almost completely withered)) | 4 (Herbicidal ratio of 70% or higher and lower than 90%) | 0 (Herbicidal ratio of 5% or lower (almost no effect)) | 0 (Herbicidal ratio of 5% or lower (almost no effect)) | 0 (Herbicidal ratio of 5% or lower (almost no effect)) | 0 (Herbicidal ratio of 5% or lower (almost no effect)) | 0 (Herbicidal ratio of 5% or lower (almost no effect)) | 2 (Herbicidal ratio of 20% or higher and lower than 40%) | 1 (Herbicidal ratio of 5% or higher and lower than 20%) | 4 (Herbicidal ratio of 70% or higher and lower than 90%) | 0 (Herbicidal ratio of 5% or lower (almost no effect)) | 
